Assay [1] has as its system monocytes. Kind of assay: Monocyte/macrophage differentiation and functional changes (RT-PCR or microarray analysis). The format is cell-based, Rodent and human. The conditions noted are these: for cell proliferation and maturation of monocytes: 10^-7 M cortisol, 10^-9 M aldosteron. As for the experimental part:
Rodent and human monocytes were studied during their differentiation process towards macrophages in the presence or absence of different, physiologically relevant levels of cortisol or corticosterone, as well as aldosterone, respectively.
Glucocorticoid receptor (GR) and mineralocorticoid receptor occupancy was modulated with either eplerenone or ZK91587 or canrenoate (as MR-antagonists) or RU486 (GR-antagonist). […] (dehydrocorticosterone in rodent cells) was added as a substrate for 11-beta-HSD1. Metyrapone was used to block 11-beta-HSD1 reductase activity. Inhibitors were added with 10^-7 M cortisol, 10^-9 M aldosteron concentration, HSD inhibitors were added in 10^-6 M concentration.
Monocytes were first stimulated with either lipopolysaccharide (LPS) or Tumor-necrosis-factor-alpha (TNF-apha), interferone-gamma (IFN-gamma), interleukin-13 (IL-13) or interleukin-4 (IL-4) before differentiation into macrophages in the presence of above different agonist/antagonist combinations. In order to evaluate the linkage between inflammation and metabolic disease, mature macrophages were also stimulated with fatty acids via the Toll-like-receptor 4.

For assay [2] the following is noted: heart failure patients, normal or low aldosterone, added to ACE inhibitor, loop diuretic and digoxin; cited from earlier work.
For assay [3], the system named is Vascular smooth muscle cells. Briefly: GR or MR blockade and 11-beta-HSD-2 inhibition in vascular cells. The following applies: physiologically relevant levels of aldosterone. The class given is cell-based. The protocol:
Vascular smooth muscle cells were incubated with varying combinations of a MR or GR-antagonist and physiologically relevant levels of cortisol or aldosterone; importantly, adosterone and cortisol were also used in combination to mimic specific interactions between the ligand-receptor and co-factor recruitment as observed in vitro and in vivo.

The target in assay [4] is T1, mineralocorticoid receptor (Homo sapiens, UniProt P08235).
T1 sequence (P08235 1-984): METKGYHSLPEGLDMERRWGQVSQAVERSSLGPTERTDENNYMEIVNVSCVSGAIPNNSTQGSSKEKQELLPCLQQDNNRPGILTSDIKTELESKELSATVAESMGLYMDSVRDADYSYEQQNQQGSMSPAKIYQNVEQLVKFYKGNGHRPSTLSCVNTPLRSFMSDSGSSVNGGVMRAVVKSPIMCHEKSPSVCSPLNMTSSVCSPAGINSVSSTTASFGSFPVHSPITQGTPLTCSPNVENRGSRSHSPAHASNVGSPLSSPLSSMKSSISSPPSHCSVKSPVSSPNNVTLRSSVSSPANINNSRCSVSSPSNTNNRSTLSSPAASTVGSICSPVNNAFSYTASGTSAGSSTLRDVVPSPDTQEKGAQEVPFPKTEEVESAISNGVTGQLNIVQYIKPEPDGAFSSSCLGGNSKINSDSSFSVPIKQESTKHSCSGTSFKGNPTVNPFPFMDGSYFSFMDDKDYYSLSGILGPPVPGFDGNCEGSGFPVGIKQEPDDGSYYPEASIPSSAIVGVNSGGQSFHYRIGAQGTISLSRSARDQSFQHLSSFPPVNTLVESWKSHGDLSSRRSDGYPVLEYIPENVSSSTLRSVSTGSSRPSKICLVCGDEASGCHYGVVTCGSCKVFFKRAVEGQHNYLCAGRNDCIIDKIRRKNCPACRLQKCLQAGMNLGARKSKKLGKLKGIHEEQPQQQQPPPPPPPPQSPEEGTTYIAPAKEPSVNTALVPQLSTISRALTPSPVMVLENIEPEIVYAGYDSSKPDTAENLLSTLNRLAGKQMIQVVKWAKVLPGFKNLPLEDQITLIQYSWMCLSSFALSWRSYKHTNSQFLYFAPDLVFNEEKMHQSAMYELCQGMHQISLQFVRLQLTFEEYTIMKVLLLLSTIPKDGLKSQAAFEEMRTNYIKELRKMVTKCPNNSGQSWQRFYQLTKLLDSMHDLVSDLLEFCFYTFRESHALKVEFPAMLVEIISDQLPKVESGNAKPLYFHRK
The conditions noted are these: relative to aldosterone; cited from earlier work.

On to `CC(C)(C(=O)c1cccnc1)c1cccnc1` [metyrapone], for which the “effect on macrophage differentiation and function” value in assay [1] (HSD inhibitors added in 10^-6 M concentration) was “the effects of aldosterone at the high affinitity MR were enhanced or were able to override glucocorticoid mediated effects”. Turning to `CC(=O)S[C@@H]1CC2=CC(=O)CC[C@]2(C)[C@H]2CC[C@@]3(C)[C@@H](CC[C@@]34CCC(=O)O4)[C@H]12` [spironolactone], the “decrease of post-myocardial infarction morbidity and mortality rate” value in assay [2] is given as “about 30%”. On to `COC(=O)[C@@H]1CC2=CC(=O)CC[C@]2(C)[C@@]23O[C@@H]2C[C@@]2(C)[C@@H](CC[C@@]24CCC(=O)O4)[C@H]13` [eplerenone], for which the “decrease of post-myocardial infarction morbidity and mortality rate” value in assay [2] is recorded as about 15%. Besides, the “vascular endothelial growth factor (VEGF) and ICAM-1 induction” value in assay [3] is on record as “reversed this effect”. Take `C[C@]12CCC(=O)C=C1CC[C@@H]1[C@@H]2[C@@H](O)C[C@]2(C=O)[C@@H](C(=O)CO)CC[C@@H]12` [aldosterone]: the “vascular endothelial growth factor (VEGF) and ICAM-1 induction” value in assay [3] is recorded as “induced vascular endothelial growth factor (VEGF) as well as ICAM-1”. In assay [1], the “cell proliferation and maturation of monocytes” value was “induced cell proliferation and maturation of monocytes”. Also, in assay [1] (induction with aldosterone), the “macrophage phenotype (NfkappaB, RANK-ligand, interleukin-6, ROS, plasminogen activator inhibitor-1)” value is “more proinflammatory macrophage phenotype”.

`C[C@]12CCC(=O)C=C1CC[C@@H]1[C@@H]2[C@@H](O)C[C@@]2(C)[C@H]1CC[C@]2(O)C(=O)CO` [cortisol]: the “affinity to the mineralocorticoid receptor, higher than aldosterone” value in assay [4] is 10-30 fold. In assay [1], the “cell proliferation and maturation of monocytes” value was “induced cell proliferation and maturation of monocytes”. With `C[C@]12CCC(=O)C=C1CC[C@@H]1[C@@H]2C(=O)C[C@@]2(C)[C@H]1CC[C@]2(O)C(=O)CO` [cortisone], the “cell proliferation and maturation of monocytes” value in assay [1] is “induced cell proliferation and maturation of monocytes”.
